Measurements reported in ChEMBL document CHEMBL1158660, “Potential anticancer agents. XIV. Isolation of spruceanol and montanin from Cunuria spruceana (Euphorbiaceae)” (1979).
Converted amounts (≈) assume the structure as drawn.

Tested on: P388
Assay: Cytotoxicity against mouse P388 cells
Type: functional
Details: read-out: ED50 (the source's name)

C=C(C)[C@]12C[C@@H](C)[C@@]34O[C@](CCCCCCCCCCC)(O[C@@H]1[C@@H]3[C@@H]1O[C@]1(CO)[C@@H](O)[C@]1(O)C(=O)C(C)=C[C@H]14)O2 [MONTANIN]
EC50: 0.06 µg/mL (≈ 0.107 µM)

C=Cc1c(C)c(O)cc2c1CC[C@@H]1C(C)(C)[C@H](O)CC[C@@]21C [SPRUCEANOL]
EC50: 3.2 µg/mL (≈ 10.7 µM)
